According to patent publication US20090298811A1, “BENZIMIDAZOLONE DERIVATIVES” (Pfizer Inc, priority 2006, published 2009):

How the values were obtained:
human CB1 receptor [1] = target: T1, human CB1 receptor (Homo sapiens, UniProt P21554); assay: Human CB1 receptor binding, [3H] CP-55,940 displacement on HEK cell membranes; parameters: expressed in transfected cells; membranes; details: [3H] CP-55,940 500 pM
Procedure: The Human CB1 receptor binding affinity and other biological activities of the compounds of this invention are determined by the following procedures.
Membrane preparation: Human Embryonic Kidney (HEK) Cells expressing the human CB1 receptor under transcriptional regulation of a tetracycline inducible promoter were grown in Dulbecco's Modified Essential Medium with sodium pyruvate (Invitrogen, Carlsbad, Calif.) containing 10% tetracycline free fetal bovine serum (Clonetech, Mountain View, Calif.) 100 μg/ml hygromycin (Calbiochem, San Diego, Calif.), 5 μg/ml blasticidin (Invitrogen). CB1 receptor expression was induced by addition of 1 μg/ml doxycycline (Calbiochem) and incubation for an additional 24 hours. Cells were released from flasks using Cell Dissociation Buffer (Invitrogen). Cells were pelleted by centrifugation at 500×G for 5 minutes. Membranes were prepared by resuspending cells in ice cold TEE Buffer (25 mM Tris pH 7.4, 5 mM EDTA, 5 mM EGTA, Complete Protease Inhibitor (Roche, Basel, Switzerland)). Cells were lysed with 12 strokes of a dounce homogenizer. Unlysed cells were pelleted by centrifugation at 500×G for 5 minutes. Membranes were pelleted by centrifugation at 25,000×G for 30 minutes. Membranes were resuspended in TEE, dounced 12 strokes, and pelleted a second time at 25,000×G for 30 minutes. Membrane pellet was resuspended in 50 mM Tris pH 7.4, 100 mM NaCl, 3 mM MgCl2, 0.2 mM EGTA, Complete Protease Inhibitor (Roche). Protein concentration was determined using the Micro-BCA Protein Assay Kit (Pierce, Rockford, Ill.) using BSA as a standard. Membranes were quick frozen and stored at −80 degrees Celsius until use. Binding experiments: 50 μl of test compound was incubated with 50 μl, of [^3H] CP-55,940 (Perkin Elmer, Boston, Mass.) (final concentration 500 pM) and 150 μl of membrane homogenate (1 μg/well) in polypropylene 96-well plates (Corning, Acton, Mass.). Final reaction conditions were 50 mM Tris pH 7.4, 100 mM NaCl, 3 mM MgCl2, 0.2 mM EGTA, 0.04% BSA. Nonspecific binding was determined by incubation with 50 μM WIN-55,212-2 (Tocris, Ellisville, Mo.). After incubation at room temperature for 60 minutes reactions were harvested by vacuum filtration through Unifilter GF/B-96 filters (Perkin Elmer) that had been presoaked in assay buffer containing 0.5% BSA (Sigma, St. Louis, Mo.) using a FilterMate Plate Harvester (Perkin Elmer). Filters were rinsed 4 times with 50 mM Tris pH 7.4, 0.025% Tween20 and dried at 50 degrees Celsius for at least 30 minutes. 40 μl of Microscint-20 (Perkin Elmer) was added per well, and plates were counted using a Top-Count Microplate Scintillation Counter (Perkin Elmer). Binding data were analyzed and EC50 and Ki values calculated using Graph Pad Prism 4.0 Software.

human CB1 receptor [2] = target: T1, human CB1 receptor; assay: GTPγS binding on membranes of CHO cells expressing the human CB1 receptor; assay type: biochemical; parameters: expressed in transfected cells; host or cells: CHO cells (G418 selection); membranes; details: CHO cell membranes, [35S] GTPγS
Procedure: Membrane preparation: CHO cells expressing the human CB1 receptor were grown to 80% confluence in Ham's F-12 Nutrient Medium (Invitrogen) containing 10% fetal bovine serum (Invitrogen), 1% pen/strep (Invitrogen), 1% Nonessential amino acids (Invitrogen) and 500 μg/ml G418 (Invitrogen). Cells were released from flasks using Cell Dissociation Buffer (Invitrogen). Cells were pelleted by centrifugation at 500×G for 5 minutes. Membranes were prepared by resuspending cells in ice cold Assay Buffer (25 mM Tris pH 7.4, 5 mM EDTA, 5 mM EGTA, Complete Protease Inhibitor (Roche)). Cells were lysed with 12 strokes of a dounce homogenizer. Unlysed cells were pelleted by centrifugation at 500×G for 5 minutes. Membranes were pelleted by centrifugation at 25,000×G for 30 minutes. Membranes were resuspended in TEE, dounced 12 strokes, and pelleted a second time at 25,000×G for 30 minutes. Membrane pellet was resuspended in 50 mM Tris pH 7.4, 100 mM NaCl, 3 mM MgCl2, 0.2 mM EGTA, Complete Protease Inhibitor (Roche). Protein concentration was determined using the Micro-BCA Protein Assay Kit (Pierce) using BSA as a standard. Membranes were frozen and stored at −80 degrees Celsius until use. GTPγS Binding: 40 μl of test compound was incubated with 20 μl of [^35S] GTPγS (Perkin Elmer) (1250 Ci/millimole) and 140 μl of membrane homogenate (5 ug/well) in polypropylene 96-well plates (Corning). Final reaction conditions were 50 mM Tris pH 7.4, 100 mM NaCl, 3 mM […], 0.2 mM EGTA, 0.04% BSA. After incubation at 37 degrees Celsius for 45 minutes reactions were harvested by vacuum filtration through Unifilter GF/B-96 filters (Perkin Elmer) using a FilterMate Plate Harvester (Perkin Elmer). Filters were rinsed 4 times with ice cold 50 mM Tris pH 7.4, 3 mM MgCl2, 0.2 mM EGTA and dried at 50 degrees Celsius for at least 30 minutes. 40 μl of Microscint-20 (Perkin Elmer) was added per well, and plates were counted using a Top-Count Microplate Scintillation Counter (Perkin Elmer). Binding data were analyzed and EC50 values were calculated using Graph Pad Prism 4.0 Software.

T1 sequence (P21554 whole entry): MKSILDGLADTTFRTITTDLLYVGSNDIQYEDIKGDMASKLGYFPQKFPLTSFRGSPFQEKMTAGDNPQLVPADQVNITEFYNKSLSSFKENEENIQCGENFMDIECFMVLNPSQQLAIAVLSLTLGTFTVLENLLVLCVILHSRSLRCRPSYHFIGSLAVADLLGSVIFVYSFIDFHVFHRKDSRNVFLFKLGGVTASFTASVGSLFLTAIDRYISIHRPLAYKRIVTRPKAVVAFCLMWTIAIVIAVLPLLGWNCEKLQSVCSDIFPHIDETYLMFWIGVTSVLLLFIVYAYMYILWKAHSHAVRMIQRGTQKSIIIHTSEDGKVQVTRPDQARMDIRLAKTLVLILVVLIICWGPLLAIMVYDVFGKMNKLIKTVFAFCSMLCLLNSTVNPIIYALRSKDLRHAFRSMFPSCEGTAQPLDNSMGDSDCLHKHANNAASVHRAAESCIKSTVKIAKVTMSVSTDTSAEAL

| SMILES | Ki (human CB1 receptor [1]) [nM] | EC50 (human CB1 receptor [2]) [nM] |
| --- | --- | --- |
| CC(C)(C)[C@H](NC(=O)n1c(=O)n(CC2CCOCC2)c2ccccc21)C(N)=O [Example 132, N-[(1S)-1-(aminocarbonyl)-2,2-dimethylpropyl]-2-oxo-3-(tetrahydro-2H-pyran-4-ylmethyl)-2,3-dihydro-1H-benzimidazole-1-carboxamide] | 3.4 | 12.7 |
| CNC(=O)[C@@H](NC(=O)n1c(=O)n(CC2CCOCC2)c2ccccc21)C(C)(C)C [Example 303] | 5.71 | 36.6 |
| CC(C)(C)[C@H](NC(=O)n1c(=O)n(CC2CCCCC2)c2c(F)cccc21)C(N)=O [Example 172] | 0.77 | 7.8 |
| CC(C)(C)[C@H](NC(=O)n1c(=O)n(CC2CCC(F)(F)CC2)c2ccccc21)C(N)=O [Example 306] | 0.31 | 3.45 |
| CC(C)(C)[C@H](NC(=O)n1c(=O)n(CC2CCCCO2)c2ccccc21)C(N)=O (stereo partly shown) [Example 224] | 29.9 | 176 |
| CC(C)(C)[C@H](NC(=O)n1c(=O)n(CC2CCCCC2)c2ccc(F)cc21)C(N)=O [Example 165] | 0.82 | 27.4 |
| CC(C)(C)[C@H](NC(=O)n1c(=O)n(CCCCC#N)c2ccccc21)C(N)=O [Example 223] | 102 | 1860 |
| CC(C)(C)[C@H](NC(=O)n1c(=O)n(CC2CCOCC2)c2ccccc21)c1nnc(N)o1 [Example 319] | 5.17 | 96.3 |
| Cc1ccc2c(c1)n(C(=O)N[C@H](C(N)=O)C(C)(C)C)c(=O)n2CC1CCCCC1 [Example 167] | 2.66 | 44.9 |
| CC(C)(C)[C@H](NC(=O)n1c(=O)n(CCC2CCC2)c2ccccc21)C(N)=O [Example 217] | 1.28 | 3.2 |
| Cc1ccc2c(c1)n(CC1CCCCC1)c(=O)n2C(=O)N[C@H](CC(C)C)C(N)=O [Example 267] | 18.4 | > 10000 |
| CC(C)(C)[C@H](NC(=O)n1c(=O)n(CC2CC=C(F)CC2)c2ccccc21)C(N)=O (stereo partly shown) [Example 304] | 0.15 | 0.87 |
| O=C(N[C@H]1c2ccccc2C[C@H]1O)n1c(=O)n(CC2CCC2)c2ccccc21 [Example 189] | 88.4 | 1020 |
| O=C(N[C@H]1c2ccccc2C[C@H]1O)n1c(=O)n(CC2CCCCC2)c2ccccc21 [Example 188] | 1.9 | 87.7 |
| CC(C)(C)[C@H](NC(=O)n1c(=O)n(CC2CCOCC2)c2ccccc21)C(=O)NC[C@H](O)CO [Example 345] | 52.8 | 1150 |
| CCCCCn1c(=O)n(C(=O)N[C@H]2CCCC[C@@H]2O)c2ccccc21 [Example 193] | 67.4 | 622 |
| CCCCCn1c(=O)n(C(=O)N[C@H](CO)C(C)(C)C)c2ccccc21 [Example 178] | 8.45 | 137 |
| Cc1cc(CNC(=O)n2c(=O)n(CC3CCOCC3)c3ccccc32)c(C(F)(F)F)o1 [Example 320] | 4.2 | 98.6 |
| CC(C)(C)[C@H](NC(=O)n1c(=O)n(Cc2cccc(F)c2)c2ccccc21)C(N)=O [Example 362] | 3.7 | 106 |
| CC(C)(C)[C@H](NC(=O)n1c(=O)n(CC2CCOCC2)c2cc(F)ccc21)C(=O)NCCO [Example 356] | 16.6 | 219 |
| CC(C)(C)[C@H](NC(=O)n1c(=O)n(CC2CCCCC2)c2cc(Cl)ccc21)C(N)=O [Example 170] | 0.28 | 1.86 |

| SMILES | Ki (human CB1 receptor [1]) [nM] | EC50 (human CB1 receptor [2]) [nM] |
| --- | --- | --- |
| Cc1cc(CNC(=O)n2c(=O)n(CC3CCOCC3)c3ccccc32)c(C)o1 [Example 311] | 2.03 | 57 |
| CCc1nc(CNC(=O)n2c(=O)n(CC3CCOCC3)c3ccccc32)cs1 [Example 328] | 5.94 | 167 |
| Cc1ccc2c(c1)n(CC1CCCCC1)c(=O)n2C(=O)N[C@H](C(N)=O)C1CCCCC1 [Example 273] | 57.5 | 244 |
| CC(C)(C)[C@@H](CO)NC(=O)n1c(=O)n(CC2CCCCC2)c2cc(Br)ccc21 [Example 308] | 5.38 | 20.5 |
| CCCCCn1c(=O)n(C(=O)N[C@H]2CCCc3ccccc32)c2ccccc21 [Example 199] | 0.9 | 40.1 |
| CC(C)(C)[C@H](NC(=O)n1c(=O)n(CC2CCOCC2)c2cc(C#N)ccc21)C(N)=O [Example 272] | 58 | 45.4 |
| CC(C)(C)[C@H](NC(=O)n1c(=O)n(CCCC(F)(F)F)c2ccccc21)C(N)=O [Example 293] | 1.45 | 32.4 |
| CC(C)(C)[C@H](NC(=O)n1c(=O)n(CC2CCOCC2)c2ccccc21)C(=O)NC1CC1 [Example 298] | 5.27 | 88.6 |
| CC(C)(C)[C@H](NC(=O)n1c(=O)n(CC2CCOCC2)c2cc(F)ccc21)C(N)=O [Example 290] | 19.2 | 25.1 |
| O=C(N[C@H]1CCCc2ccccc21)n1c(=O)n(CC2CCC2)c2ccccc21 [Example 198] | 5.79 | 46.5 |
| CC(C)(C)[C@H](NC(=O)n1c(=O)n(CC2CCC2)c2ccccc21)C(N)=O [Example 201] | 4.94 | 45.3 |
| CC(C)(C)[C@@H](CO)NC(=O)n1c(=O)n(CC2CCOCC2)c2cc(F)ccc21 [Example 301] | 5.25 | 268 |
| O=C(NCc1ccoc1)n1c(=O)n(CC2CCOCC2)c2ccccc21 [Example 329] | 28 | 606 |
| CC(C)(C)[C@H](NC(=O)n1c(=O)n(CC2CCCCC2)c2ncccc21)C(N)=O [Example 226] | 5.34 | 62.1 |
| CC(C)(C)[C@H](NC(=O)n1c(=O)n(CC2CCOCC2)c2cc(F)ccc21)C(=O)NCCCO [Example 355] | 6.72 | 361 |
| CCCCCn1c(=O)n(C(=O)N[C@H](C(N)=O)C(C)C)c2ccccc21 [Example 205] | 69 | 422 |
| CC(C)(C)[C@H](NC(=O)n1c(=O)n(Cc2ccccc2)c2ccccc21)C(=O)NCCCO [Example 361] | 24.7 | 249 |
| Cc1ccc2c(c1)n(CC1CCCCC1)c(=O)n2C(=O)NC1(C(N)=O)CCCCC1 [Example 266] | 109 | > 2850 |
| CCCCCn1c(=O)n(C(=O)N[C@H](C(N)=O)C(C)(C)C)c2cccnc21 [Example 365] | 95.1 | 1030 |
| Cc1ccc2c(c1)n(CC1CCCCC1)c(=O)n2C(=O)N[C@H](C(N)=O)C(C)C [Example 269] | 2.95 | 24 |
